Earlier results, collected in patent US12708655B2, “Botanicals as WNT/beta-catenin activators, molecular pathway regulators, tissue regenerators and health biomarker regulators” (Arbor Life Holdings, Ltd., priority 2020, dated 2026).

How the values were obtained:
[1] = compounds found in Eclipta; NA = Not Applicable; cited from earlier work
[2] = compounds found in Eclipta; NA = Not Applicable; cited from earlier work; remark: listed apart in the source

Compound	Anticancer activity (AC) [1]	Antioxidant activity (AO) [2]
O=C(O)c1ccc(O)c(O)c1 [3,4-dihydroxybenzoic acid]	YES	YES
O=C(O)c1ccc(O)cc1 [4-hydroxybenzoic acid]	YES	YES
O=c1cc(-c2ccc(O)cc2)oc2cc(O[C@@H]3O[C@H](CO)[C@@H](O)[C@H](O)[C@H]3O)cc(O)c12 [Apigenin-7-O-glucoside]	YES	YES
O=c1cc(-c2ccc(O)cc2)oc2cc(O)cc(O)c12 [Apigenin]	YES	YES
O=C(/C=C/c1ccc(O)c(O)c1)c1ccc(O)cc1O [Butein]	YES	YES
Oc1ccccc1O [Catechol]	YES	YES
O=c1cc(-c2ccc(O)c(O)c2)oc2cc(O[C@@H]3O[C@H](CO)[C@@H](O)[C@H](O)[C@H]3O)cc(O)c12 [Cynaroside]	YES	YES
O=c1oc2cc(O)cc(O)c2c2oc3cc(O)c(O)cc3c12 [Demethylwedelolactone]	YES	YES
O=C(O)c1cc(O)c(O)c(O)c1 [Gallic acid]	YES	YES
COC[C@@H]1Cc2cc(OC)c3c(c2[C@H](c2ccc(OC)c(OC)c2)[C@H]1COC)OCO3 [Hypophyllanthin]	YES	YES
O=c1cc(-c2ccc(O)c(O)c2)oc2cc(O)cc(O)c12 [Luteolin]	YES	YES
O[C@H]1[C@H](O)[C@@H](O)[C@H](O)[C@@H](O)[C@H]1O [Myoinositol]	YES	YES
O=C(O)c1cccnc1 [Nicotinic acid]	YES	YES
C[C@@H]1O[C@@H](Oc2c(-c3ccc(O)c(O)c3)oc3cc(O)cc(O)c3c2=O)[C@H](O)[C@H](O)[C@H]1O [Quercetin-3-rhamnoside]	YES	YES
CC[C@H](/C=C/[C@@H](C)[C@H]1CC[C@H]2[C@@H]3CC=C4C[C@@H](O)CC[C@]4(C)[C@H]3CC[C@]12C)C(C)C [Stigmasterol]	YES	YES
COc1cc(O)c2c(c1)oc(=O)c1c3cc(O)c(O)cc3oc21 [Wedelolactone]	YES	YES
OCc1ccc(-c2ccc(-c3cccs3)s2)s1 [α-terthienyl methanol]	YES	
CC1(C)CC[C@]2(C)CC[C@]3(C)C(=CC[C@@H]4[C@@]5(C)CC[C@H](O)C(C)(C)[C@@H]5CC[C@]43C)[C@@H]2C1 [β-amyrin]		YES
CC[C@H](CC[C@@H](C)[C@H]1CC[C@H]2[C@@H]3CC=C4C[C@@H](O)CC[C@]4(C)[C@H]3CC[C@]12C)C(C)C [β-sitosterol]	YES	YES
Demethylwedelolactone 7-glucoside	YES	YES
Echinocystic acid	YES	
